In US9567347B2, “Use of small molecule inhibitors targeting the interaction between RAC GTPase and p67(phox)” (CHILDREN'S HOSPITAL MEDICAL CENTER, priority 2012, dated 2017):
Where two headings read alike, the source gives them in different places.

How the values were obtained:
[1] = test system: primary human neutrophils; assay: luminol chemiluminescence assay of fMLP-induced ROS production; assay type: cell-based
Protocol: HL-60 cells were propagated in RPMI 1640 medium containing 10% heat inactivated fetal bovine serum, 2 mM L-glutamine, 100 U/mL penicillin/streptomycin at 37° C. in air containing 5% CO2. For differentiation, HL-60 cells were cultured in 1.3% dimethyl sulfoxide (DMSO) as previously described (Servant, G., et al. (1999) Mol Biol Cell 10, 1163-1178, hereby incorporated by reference in its entirety). Primary murine neutrophils were isolated from C57Bl/6 mouse bone marrow according to a published protocol (Filippi et al., (2004) Nat Immunol 5, 744-751, hereby incorporated by reference in its entirety) using a discontinuous Percoll (Pharmacia) gradient and were utilized immediately in experiments. Human neutrophils were obtained from fresh blood (IRB #2010-1855, Cincinnati Children's Hospital medical Center) following a well established protocol using density gradient separation from whole blood (Oh et al. (2008) J Vis Exp., 17, pii: 745, hereby incorporated by reference in its entirety). […]
Chemiluminescence was measured using GloMax®-96 Microplate Luminometer (Promega) (Tarpey et al., (2004) Am J Physiol Regul Integr Comp Physiol 286: R431-R444, hereby incorporated by reference in its entirety). […]

[2] = test system: fMLP-activated primary murine neutrophils; assay: Nitroblue tetrazolium (NBT) assay; assay type: cell-based, mouse; details: 10 μM, FIG. 3C
Protocol: Primary neutrophils from mouse bone marrow were subjected to fMLP stimulation in the presence or absence of various chemicals for 5 min. Cells were stained for NBT activity as previously described in the incorporated materials of Filippi et al. (2004) to reveal relative ROS production.
To complement the DCFDA based FACS analysis and the luminol chemiluminescence method, nitroblue tetrazolium (NBT) assays were performed in fMLP-activated primary murine neutrophils (FIG. 3C).
The NBT assay was performed in primary murine neutrophils to measure ROS neutrophil production. […] Each compound was used at 10 μM.

xanthine oxidase = target: T1, xanthine oxidase (Bos taurus, UniProt P80457); assay: xanthine/xanthine oxidase assay; assay type: biochemical; details: 10 μM, 30 min at room temperature
T1 construct: purchased Sigma Aldrich
Protocol: Chemiluminescence was measured using GloMax®-96 Microplate Luminometer (Promega) (Tarpey et al., (2004) Am J Physiol Regul Integr Comp Physiol 286: R431-R444, hereby incorporated by reference in its entirety). The generation of […] by the xanthine/xanthine oxidase was performed in PBS supplemented with xanthine oxidase (0.004 U), HRP (0.005 U·mL^−1) and L012, following the protocol described in Wind et al., (2010) Br J Pharmacol. 161, 885-898, hereby incorporated by reference in its entirety. The reaction was started by the addition of xanthine (0.5 mM).
To test if the inhibitors are specific for the NOX2 enzyme, a xanthine/xanthine oxidase assay was performed. Specifically, vehicle, NAC (10 mM), […] or Phox-I2 (10 μM) was added to the assay, and incubated for 30 min at room temperature. The results were calculated by taking superoxide production in the absence of inhibitors as 100 and value obtained with NAC, Pghox-I1 or Phox-I2 was expressed as relative %. The data shown in FIG. 6 represent those from three separate experiments.

dHL-60 cells = assay: DCFDA ROS assay after wash and recovery (affinity assay); assay type: cell-based, human; details: 2 hr treatment, recovery 4 hr or 2 hr
Protocol: (A) Apoptosis analysis by FACS of HL-60 cells treated with compound or vehicle control for 2 hours prior to 7-AAD and Annexin V staining. (B) HL-60 cells from A were harvested and lysates were immunoblotted for levels of pPAK, and actin was used as a control for loading. (C) F-actin reorganization in freshly isolated fMLP-stimulated primary murine neutrophils was analyzed. […] Cells were exposed to a 10 μM dose of Phox-I1, Phox-I2, and Analog 13, and 200 nM nocodazole. (D) The effect of Phox-I on NOX4 mediated ROS production was tested in primary murine neutrophils transfected with a NOX4 expressing plasmid. 10 μM Phox-I1 was applied to the cells for 30 min prior to ROS assay by luminol chemiluminescence in the presence of HRP. The fMLP-stimulated ROS activity in the presence or absence of 10 uM Phox-I1 was measured in parallel. (E) The antioxidant abilities of these lead compounds were tested by prestimulating dHL-60 cells with fMLP for 30 minutes prior to treatment with Phox-I1 or Phox-I2. Levels of superoxide were analyzed by DCFDA assay and FACS. NAC, apocyanin, DPI, and NSC23766 treated cells served as controls. (F) For affinity assay, DMSO-differentiated HL-60 cells were treated with standard effective dose of indicated compound for 2 hours, washed, and allowed to recover in normal media for 4 hours or 2 hours prior to fMLP stimulation and DCFDA ROS production assay by FACS analysis. (G) For stability assay, DMSO-differentiated HL-60 cells were treated with 20 μM dose of compound for the indicated time period prior to fMLP stimulation and DCFDA ROS production assay by FACS analysis.
Next, a stability experiment was performed to determine the duration of effectiveness of the compound in suppressing neutrophils. To analyze the relative affinities of these compounds for the p67^phox target in cells, DCFDA ROS production assays were performed in dHL-60 cells treated with compound for 2 hr followed by wash and recovery for 4 hr or 2 hr in normal media prior to ROS production analysis.

T1 sequence (P80457 2-1332 limits assumed): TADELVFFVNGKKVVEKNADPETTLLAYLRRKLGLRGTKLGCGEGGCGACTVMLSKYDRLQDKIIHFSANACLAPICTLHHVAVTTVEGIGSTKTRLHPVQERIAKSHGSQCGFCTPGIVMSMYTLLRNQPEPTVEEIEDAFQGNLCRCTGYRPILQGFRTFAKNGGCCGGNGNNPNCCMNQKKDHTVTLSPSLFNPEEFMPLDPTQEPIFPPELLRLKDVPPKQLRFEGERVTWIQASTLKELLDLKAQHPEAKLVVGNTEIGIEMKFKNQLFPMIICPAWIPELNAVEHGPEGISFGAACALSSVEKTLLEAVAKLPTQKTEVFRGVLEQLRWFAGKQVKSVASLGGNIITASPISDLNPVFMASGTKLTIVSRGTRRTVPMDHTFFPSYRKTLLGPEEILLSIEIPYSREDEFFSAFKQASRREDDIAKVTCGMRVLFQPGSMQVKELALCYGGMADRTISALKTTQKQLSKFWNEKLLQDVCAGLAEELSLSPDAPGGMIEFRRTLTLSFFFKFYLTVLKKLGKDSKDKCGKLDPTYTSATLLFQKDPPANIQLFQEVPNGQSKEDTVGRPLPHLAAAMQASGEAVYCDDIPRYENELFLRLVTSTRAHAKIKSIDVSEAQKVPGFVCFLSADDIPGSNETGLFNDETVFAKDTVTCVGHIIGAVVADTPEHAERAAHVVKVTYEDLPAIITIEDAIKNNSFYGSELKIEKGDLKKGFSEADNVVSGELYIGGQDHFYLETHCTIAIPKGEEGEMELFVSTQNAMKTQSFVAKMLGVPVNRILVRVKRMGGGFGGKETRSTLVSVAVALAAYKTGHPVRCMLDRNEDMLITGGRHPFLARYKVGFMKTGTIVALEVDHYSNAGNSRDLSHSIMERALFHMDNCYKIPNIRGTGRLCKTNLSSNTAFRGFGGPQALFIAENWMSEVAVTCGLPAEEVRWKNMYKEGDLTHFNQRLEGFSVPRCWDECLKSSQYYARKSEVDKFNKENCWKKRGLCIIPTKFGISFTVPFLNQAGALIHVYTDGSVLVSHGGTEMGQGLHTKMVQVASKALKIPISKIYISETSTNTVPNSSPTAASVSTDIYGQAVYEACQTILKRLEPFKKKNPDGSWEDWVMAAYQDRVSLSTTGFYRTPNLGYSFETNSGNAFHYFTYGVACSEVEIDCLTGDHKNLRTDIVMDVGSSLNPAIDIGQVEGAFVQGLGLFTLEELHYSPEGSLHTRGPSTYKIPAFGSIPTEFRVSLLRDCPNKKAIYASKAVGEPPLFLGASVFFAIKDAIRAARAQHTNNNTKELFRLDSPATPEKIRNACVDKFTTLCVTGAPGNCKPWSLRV

| SMILES | IC50 ([1]; Neutrophil) | superoxide production (NBT) [2] | xanthine oxidase-mediated ROS production (xanthine oxidase) | ROS inhibition after wash (dHL-60 cells) | IC50 [1] |
| --- | --- | --- | --- | --- | --- |
| COc1ccc2c(c1)C1C=C(c3ccccc3)NN1C(c1cccc([N+](=O)[O-])c1)O2 (centres unmarked) [Phox-I1] | ~8 µM | significant blockade of superoxide production | does not affect | still evident | – |
| O=[N+]([O-])c1cccc(C2Nc3ccc([N+](=O)[O-])cc3C3C=CCC32)c1 (centres unmarked) [Phox-I2] | – | heightened | does not affect | did not display effective ROS inhibition | ~6 µM |
